Here are results for four molecules from ChEMBL document CHEMBL1156492, “(R)- and (S)-verapamil differentially modulate the multidrug-resistant protein MRP1” (J Biol Chem, 2007).

Common to all, as to format: functional, cell-based
The test system of assay [1] is BHK-21. Kind of assay: Decrease in intracellular glutathione concentration in human MRP1 expressing hamster BHK21 cells. The conditions noted are these: Mesocricetus auratus.
The subject of assay [2] is BHK-21. Briefly: Decrease in intracellular glutathione concentration in human MRP1 expressing hamster BHK21 cells at 5 uM. The note with it: Mesocricetus auratus.
The subject of assay [3] is BHK-21. Kind of assay: Cytotoxicity against hamster BHK21 cells by MTT assay. The conditions noted are these: Mesocricetus auratus. A general note: Tetrazolium dyes change colour on reduction, which living cells bring about.
Assay [4] concerns BHK-21. Briefly: Cytotoxicity against human MRP1 expressing hamster BHK21 cells at 10 to 20 uM by MTT assay. The note with it: Mesocricetus auratus.
Assay [5] relates to BHK-21. Briefly: Cytotoxicity against human MRP1 expressing hamster BHK21 cells after 72 hrs by MTT assay. The conditions noted are these: Mesocricetus auratus, BHK-21, 72 h.
The test system of assay [6] is BHK-21. Kind of assay: Cytotoxicity against hamster BHK21 cells after 72 hrs by MTT assay. The conditions noted are these: Mesocricetus auratus, BHK-21, 72 h.

The source made the active and inactive calls. The rule behind the calls is not given here.

For `COc1ccc(CCN(C)CCC[C@@](C#N)(c2ccc(OC)c(OC)c2)C(C)C)cc1OC`, the outcome in the assay on BHK-21 [1] and with BHK-21 [2] was Active. With `COc1ccc(CCN(C)CCC[C@](C#N)(c2ccc(OC)c(OC)c2)C(C)C)cc1OC`, in the assay with BHK-21 [1], the outcome was inactive. Consider `COc1ccc(CCN(C)CCCC(C#N)(c2ccc(OC)c(OC)c2)C(C)C)cc1OC` (racemic), for which the result with BHK-21 [3] was inactive. Further, the result in the assay with BHK-21 [4] was Active.

As to `CC[C@]1(O)C[C@H]2CN(CCc3c([nH]c4ccccc34)[C@@](C(=O)OC)(c3cc4c(cc3OC)N(C=O)[C@H]3[C@@](O)(C(=O)OC)[C@H](OC(C)=O)[C@]5(CC)C=CCN6CC[C@]43[C@@H]65)C2)C1` [VINCRISTINE], the concentration for half-maximal inhibition (IC50) in the assay on BHK-21 [5] was found to be 9.42 nM; in the assay on BHK-21 [6], 1.51 nM.

For orientation: IC50 means the concentration that inhibits the measured activity by half. Read a high IC50 as a need for much substance.
